Assay results reported in patent US12649722B2, “Herbicidal cinnoline derivatives” (SYNGENTA CROP PROTECTION AG, priority 2020, dated 2026).

Columns and labels:
Format in all cases: in vivo
Solarium nigrum (SOLNI) [1] = assay: Pre-emergence Test, SOLNI; details: 1000 g/ha, evaluated after 13 days
[2] = tested on: Amaranthus retoflexus (AMARE); assay: Pre-emergence Test, AMARE; details: 1000 g/ha, evaluated after 13 days
[3] = tested on: Ipornoea hederacea (IPOHE); assay: Pre-emergence Test, IPOHE; details: 1000 g/ha, evaluated after 13 days
[4] = tested on: Echinochloa crus-galli (ECHCG); assay: Pre-emergence Test, ECHCG; details: 1000 g/ha, evaluated after 13 days
Lolium perenne (LOLPE) [5] = assay: Pre-emergence Test, LOLPE; details: 1000 g/ha, evaluated after 13 days
Setaria faberi (SETFA) [6] = assay: Pre-emergence Test, SETFA; details: 1000 g/ha, evaluated after 13 days
Solarium nigrum (SOLNI) [7] = assay: Post-emergence Test, SOLNI; details: sprayed after 8 days cultivation, 1000 g/ha, evaluated after 13 days
Description: (§1) Seeds of a variety of test species are sown in standard soil in pots (Amaranthus retoflexus (AMARE), Solarium nigrum (SOLNI), Setaria faberi (SETFA), Lolium perenne (LOLPE), Echinochloa crus-galli (ECHCG), Ipornoea hederacea (IPOHE)). After 8 days cultivation under controlled conditions in a glasshouse (at 24° C./16° C., day/night; 14 hours light; 65% humidity), the plants are sprayed with an aqueous spray solution derived from the formulation of the technical active ingredient in acetone/water (50:50) solution containing 0.5% Tween 20 (polyoxyethylene sorbitan monolaurate, CAS RN 9005-64-5). Compounds are applied at 1000 g/ha unless otherwise stated. The test plants are then grown in a glasshouse under controlled conditions in a glasshouse (at 24° C./16° C., day/night; 14 hours light; 65% humidity) and watered twice daily. After 13 days the test is evaluated for the percentage damage caused to the plant. The biological activities are shown in the following table on a five-point scale (5=81-100%; 4=61-80%; 3=41-60%; 2=21-40%; 1=10-20%; 0=0%; −=not tested).

[8] = tested on: Amaranthus retoflexus (AMARE); assay: Post-emergence Test, AMARE; details: sprayed after 8 days cultivation, 1000 g/ha, evaluated after 13 days
Summary of the method: (§2)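 Pots sown with AMARE, SOLNI, SETFA, LOLPE, ECHCG, IPOHE, kept in glasshouse (24/16 °C, 14 h light, 65% humidity), sprayed at 1000 g/ha unless stated, in acetone/water 50:50 with 0.5% Tween 20. Damage scored after 13 days on a 0–5 scale (5=81–100%, 0=0%).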

[9] = tested on: Ipornoea hederacea (IPOHE); assay: Post-emergence Test, IPOHE; details: sprayed after 8 days cultivation, 1000 g/ha, evaluated after 13 days
Summary of the method: as §2

[10] = tested on: Echinochloa crus-galli (ECHCG); assay: Post-emergence Test, ECHCG; details: sprayed after 8 days cultivation, 1000 g/ha, evaluated after 13 days
Summary of the method: as §2

Lolium perenne (LOLPE) [11] = assay: Post-emergence Test, LOLPE; details: sprayed after 8 days cultivation, 1000 g/ha, evaluated after 13 days
Description: as §1

Setaria faberi (SETFA) [12] = assay: Post-emergence Test, SETFA; details: sprayed after 8 days cultivation, 1000 g/ha, evaluated after 13 days
Summary of the method: as §2

ZEAMX [13] = assay: Pre-emergence Test, ZEAMX; details: 1000 g/ha, evaluated after 13 days
ABUTH [14] = assay: Pre-emergence Test, ABUTH; details: 1000 g/ha, evaluated after 13 days
ZEAMX [15] = assay: Post-emergence Test, ZEAMX; details: sprayed after 8 days cultivation, 1000 g/ha, evaluated after 13 days
ABUTH [16] = assay: Post-emergence Test, ABUTH; details: sprayed after 8 days cultivation, 1000 g/ha, evaluated after 13 days

| Structure (SMILES) | percentage damage caused to the plant, SOLNI (Solarium nigrum (SOLNI) [1]) | percentage damage caused to the plant, AMARE [2] | percentage damage caused to the plant, IPOHE [3] | percentage damage caused to the plant, ECHCG [4] | percentage damage caused to the plant, LOLPE (Lolium perenne (LOLPE) [5]) | percentage damage caused to the plant, SETFA (Setaria faberi (SETFA) [6]) | percentage damage caused to the plant, SOLNI (Solarium nigrum (SOLNI) [7]) | percentage damage caused to the plant, AMARE [8] | percentage damage caused to the plant, IPOHE [9] | percentage damage caused to the plant, ECHCG [10] | percentage damage caused to the plant, LOLPE (Lolium perenne (LOLPE) [11]) | percentage damage caused to the plant, SETFA (Setaria faberi (SETFA) [12]) | percentage damage caused to the plant, ZEAMX (ZEAMX [13]) | percentage damage caused to the plant, ABUTH (ABUTH [14]) | percentage damage caused to the plant, ZEAMX (ZEAMX [15]) | percentage damage caused to the plant, ABUTH (ABUTH [16]) |
| --- | --- | --- | --- | --- | --- | --- | --- | --- | --- | --- | --- | --- | --- | --- | --- | --- |
| COC(=O)c1nn(-c2ccc(OC(F)(F)F)cc2)c2cccc(C#N)c2c1=O [Compound P7, methyl 5-cyano-4-oxo-1-[4-(trifluoromethoxy)phenyl] cinnoline-3-carboxylate] | 0 (0=0%) | 0 (0=0%) | 0 (0=0%) | 2 (2=21-40%) | 0 (0=0%) | 1 (1=10-20%) | 2 (2=21-40%) | 1 (1=10-20%) | 0 (0=0%) | 1 (1=10-20%) | 0 (0=0%) | 1 (1=10-20%) | – | – | – | – |
| C=C(OC)c1cccc2c1c(=O)c(C(=O)OC)nn2-c1ccc(OC(F)(F)F)cc1 [Compound P4, methyl 5-(1-methoxyvinyl)-4-oxo-1-[4-(trifluoromethoxy)phenyl] cinnoline-3-carboxylate] | 0 (0=0%) | 0 (0=0%) | 0 (0=0%) | 5 (5=81-100%) | 5 (5=81-100%) | 5 (5=81-100%) | 0 (0=0%) | 0 (0=0%) | 4 (4=61-80%) | 4 (4=61-80%) | 4 (4=61-80%) | 4 (4=61-80%) | – | – | – | – |
| CCOC(=O)c1nn(-c2ccc(OC(F)(F)F)cc2)c2cccc(CC#N)c2c1=O [Compound P35, ethyl 5-(cyanomethyl)-4-oxo-1-[4-(trifluoromethoxy)phenyl] cinnoline-3-carboxylate] | – | 1 (1=10-20%) | 0 (0=0%) | 5 (5=81-100%) | – | 5 (5=81-100%) | – | 0 (0=0%) | 0 (0=0%) | 4 (4=61-80%) | – | 4 (4=61-80%) | 2 (2=21-40%) | 0 (0=0%) | 3 (3=41-60%) | 0 (0=0%) |
| O=C(O)c1nn(-c2ccc(Cl)cc2)c2cccc(Oc3ccc(F)cc3)c2c1=O [Compound P11, 1-(4-chlorophenyl)-5-(4-fluorophenoxy)-4-oxo-cinnoline-3-carboxylic acid] | 5 (5=81-100%) | 3 (3=41-60%) | 0 (0=0%) | 0 (0=0%) | 0 (0=0%) | 0 (0=0%) | 1 (1=10-20%) | 5 (5=81-100%) | 0 (0=0%) | 0 (0=0%) | 0 (0=0%) | 0 (0=0%) | – | – | – | – |
| C=C(OCC)c1cccc2c1c(=O)c(C(=O)OCC)nn2-c1ccc(OC(F)(F)F)cc1 [Compound P29, ethyl 5-(1-ethoxyvinyl)-4-oxo-1-[4-(trifluoromethoxy)phenyl] cinnoline-3-carboxylate] | – | 1 (1=10-20%) | 1 (1=10-20%) | 4 (4=61-80%) | – | 5 (5=81-100%) | – | 0 (0=0%) | 0 (0=0%) | 4 (4=61-80%) | – | 3 (3=41-60%) | 1 (1=10-20%) | 1 (1=10-20%) | 2 (2=21-40%) | 1 (1=10-20%) |
